The values that follow come from patent publication US10752587B2, “Homobispiperidinyl derivatives as liver X receptor beta agonists, compositions and their use” (Merck Sharp & Dohme Corp., priority 2015, dated 2020).

Each structure is given as a SMILES string. Like-named read-outs stand apart in the source and are kept apart here.

In experiment [1] the target is T1, glutathione-S-transferase (GST) tagged LXRbeta LBD (ligand binding domain) (Homo sapiens, UniProt P55055).
T1 construct: purchased Invitrogen pv4658.pps
T1 sequence (P55055 222-460 limits assumed): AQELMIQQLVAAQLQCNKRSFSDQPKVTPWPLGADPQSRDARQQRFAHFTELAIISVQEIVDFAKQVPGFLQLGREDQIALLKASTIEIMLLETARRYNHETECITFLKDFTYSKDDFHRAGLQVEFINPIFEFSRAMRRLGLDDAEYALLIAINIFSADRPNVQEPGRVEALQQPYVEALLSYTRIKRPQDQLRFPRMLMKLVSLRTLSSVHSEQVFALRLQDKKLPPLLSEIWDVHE
The experiment in a line: LanthaScreen TR-FRET Liver X Receptor Coactivator Assay, co-activator recruitment to LXRbeta LBD. The class given is biochemical. Summed up: (§1)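 LXRα- or LXRβ-LBD protein was added to test compounds, then fluorescein-labelled coactivator peptide plus Tb-anti-GST antibody; after room-temperature incubation, TR-FRET was read. Inflection point (IP) and Emax were expressed relative to the dual agonist reference T0901317.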

The target in experiment [2] is T2, glutathione-S-transferase (GST) tagged LXRalpha LBD (ligand binding domain) (Homo sapiens, UniProt Q13133).
T2 construct: purchased Invitrogen pv4655
T2 sequence (Q13133 209-447 limits assumed): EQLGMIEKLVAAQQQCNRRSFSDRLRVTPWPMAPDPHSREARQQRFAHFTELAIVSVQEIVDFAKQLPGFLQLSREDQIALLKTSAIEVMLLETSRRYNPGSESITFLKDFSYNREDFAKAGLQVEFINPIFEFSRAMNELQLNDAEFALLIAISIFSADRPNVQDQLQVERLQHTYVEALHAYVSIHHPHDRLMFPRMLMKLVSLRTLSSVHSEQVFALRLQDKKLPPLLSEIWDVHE
Put plainly: LanthaScreen TR-FRET Liver X Receptor Coactivator Assay, co-activator recruitment to LXRalpha LBD. The experiment is classed as biochemical. In outline: as §1
For orientation: Time-resolved FRET reads energy transfer from a long-lived donor to a nearby acceptor.

Where [3] appears, read: efficacy at max dose, in relation to reference dual agonist T0901317, read-out: LXR beta Activity @ max dose (%).
[4] abbreviates: potency (Inflection Point, IP), co-activator recruitment to LXRbeta LBD, in relation to T0901317, read-out: LXR beta IP.
The mark [5] stands for this setting: efficacy at max dose, in relation to reference dual agonist T0901317, read-out: LXR alpha Activity @ max dose (%).
[6] abbreviates: potency (Inflection Point, IP), co-activator recruitment to LXRalpha LBD, in relation to T0901317, read-out: LXR alpha IP.
Where [7] appears, read: LXR beta IP (nM), potency (Inflection Point, IP), co-activator recruitment to LXRbeta LBD, in relation to T0901317.
Where [8] appears, read: read-out: LXR beta Activity @ max dose (%).
The mark [9] stands for this setting: read-out: LXR alpha Activity @ max dose (%).
Setting [10] is: potency (Inflection Point, IP), co-activator recruitment to LXRalpha LBD, in relation to T0901317.

Turning to `COc1cccc([C@@](O)(C(=O)N2CCC(CC3CCN(c4ccc(C(=O)N(C)C)c(Cl)c4)CC3)CC2)C(F)(F)C(F)(F)F)c1` [Example 2-89, 2-chloro-N,N-dimethyl-4-[4-({1-[(2R)-3,3,4,4,4-pentafluoro-2-hydroxy-2-{3-methoxyphenyl)butanoyl]piperidin-4-yl}methyl)piperidin-1-yl]benzamide], the figures for the Emax in experiment [1] (setting [3]) and in experiment [2] (setting [5]) were 83% and 23%, respectively. The EC50 was 21 nM in experiment [1] (setting [4]) and 304 nM in experiment [2] (setting [6]).

As for `CN(C)C(=O)c1ccc(N2CCC(SC3CCN(C(=O)[C@](O)(c4cccc(OC(F)(F)F)c4)C(F)(F)F)CC3)CC2)nc1Cl` [Example 9-1, (R)-2-chloro-N,N-dimethyl-6-(4-(1-(3,3,3-trifluoro-2-hydroxy-2-(3-(trifluoromethoxy)phenyl)propanoyl)piperidin-4-ylthio)piperidin-1-yl)nicotinamide], the EC50 was determined as 13 nM in experiment [1] (setting [7]) and 546 nM in experiment [2] (setting [6]). Besides, the Emax was 60% in experiment [1] (setting [8]) and 21% in experiment [2] (setting [9]).

As to `CN(C)C(=O)c1ccc(N2CCC(CC3CCN(S(=O)(=O)c4ccc(F)cc4)CC3)CC2)cc1Cl` [Example 13-14, 2-chloro-4-[4-({1-[(4-fluorophenyl)sulfonyl]-piperidin-4-yl}methyl)-piperidin-1-yl]-N,N-dimethylbenzamide], the EC50 stood at 497 nM in experiment [1] (co-activator recruitment to GST-LXRbeta LBD, TR-FRET, read-out: LXR beta IP (Inflection Point, potency)) and 2730 nM in experiment [2] (co-activator recruitment to GST-LXRalpha LBD, TR-FRET, read-out: LXR alpha IP (Inflection Point, potency)). The Emax in experiment [1] (efficacy in relation to reference dual agonist T0901317, read-out: LXR beta Activity @ max dose) amounted to 58%; in experiment [2] (efficacy in relation to reference dual agonist T0901317, read-out: LXR alpha Activity @ max dose) it was 24%.

Turning to `CNC(=O)c1ccc(N2CCC(OC3CCN(C(=O)C(O)(c4cccc(F)c4)C(F)(F)F)CC3)CC2)cc1Cl` (centres unmarked) [Example 7-30, 2-chloro-N-methyl-4-[4-({1-[3,3,3-trifluoro-2-(3-fluorophenyl)-2-hydroxypropanoyl]piperidin-4-yl}oxy)piperidin-1-yl] benzamide], the values for the Emax in experiment [1] (setting [3]) and in experiment [2] (setting [5]) were 120% and 50%, respectively. The EC50 in experiment [1] (setting [4]) came to 91 nM; in experiment [2] (setting [6]) it was 3790 nM.

For `COc1cc(Cl)cc([C@@](O)(C(=O)N2CCC(CC3CCN(c4ccc(C(=O)N(C)C)cc4)CC3)CC2)C(F)(F)F)c1` [Example 2-138, 4-[4-({1-[(2R)-2-(3-chloro-5-methoxyphenyl)-3,3,3-trifluoro-2-hydroxy-propanoyl]piperidin-4-yl}methyl)piperidin-1-yl]-N,N-dimethyl-benzamide], the Emax in experiment [1] (setting [3]) came out at 35%; in experiment [2] (setting [5]), 0%. Further, the EC50 in experiment [1] (setting [4]) was 74 nM. The “LXR alpha IP (nM)” value in experiment [2] (setting [10]) is reported as “NO IP”.

With `CNC(=O)c1ccc(N2CCC(CC3CCN(C(=O)[C@](O)(c4ccccc4F)C(F)(F)F)CC3)CC2)nc1Cl` [Example 7-145, 2-chloro-N-methyl-6-[4-({1-[(2R)-3,3,3-trifluoro-2-(2-fluorophenyl)-2-hydroxypropanoyl]piperidin-4-yl}methyl)piperidin-1-yl]pyridine-3-carboxamide], the Emax in experiment [1] (setting [3]) was determined as 115%; in experiment [2] (setting [5]) it was 47%. Moreover, the EC50 in experiment [1] (setting [4]) worked out at 23 nM; in experiment [2] (setting [6]), 791 nM.

For `CN(C)C(=O)c1ccc(N2CCC(CC3CCN(C(=O)[C@@](O)(c4ccccc4)C(F)(F)F)CC3)CC2)nc1Cl` [Example 7-62, 2-chloro-N,N-dimethyl-6-[4-({1-[(2S)-3,3,3-trifluoro-2-hydroxy-2-phenylpropanoyl]piperidin-4-yl}methyl)piperidin-1-yl]pyridine-3-carboxamide], the values for the Emax in experiment [1] (setting [3]) and in experiment [2] (setting [5]) were 119% and 31%, respectively. The EC50 in experiment [1] (setting [4]) was found to be 82 nM; in experiment [2] (setting [6]) it was 1350 nM.

For the molecule `CN(C)C(=O)c1ccc(N2CCC(CC3CCN(C(=O)[C@@](O)(c4cc(F)cc(Cl)c4)C(F)(F)F)CC3)CC2)nc1Cl` [Example 7-113, 2-chloro-6-[4-({1-[(2S)-2-(3-chloro-5-fluorophenyl)-3,3,3-trifluoro-2-hydroxypropanoyl]piperidin-4-yl}methyl)piperidin-1-yl]-N,N-dimethylpyridine-3-carboxamide], the Emax in experiment [1] (setting [3]) was found to be 125%; in experiment [2] (setting [5]) it was 31%. The EC50 came to 34 nM in experiment [1] (setting [4]) and 1610 nM in experiment [2] (setting [6]).

Turning to `COc1cccc([C@@](O)(C(=O)N2CCC(C(=O)N3CCN(c4ccc(C(=O)N(C)C)c(Cl)c4)CC3)CC2)C(F)(F)F)c1` [Example 5-1, (R)-2-chloro-N,N-dimethyl-4-(4-(1-(3,3,3-trifluoro-2-hydroxy-2-(3-methoxyphenyl)propanoyl)piperidine-4-carbonyl)piperazin-1-yl)benzamide], in experiment [1] (setting [7]), the EC50 came to 12400 nM. Moreover, the figures for the Emax in experiment [1] (setting [8]) and in experiment [2] (setting [9]) were 31% and 5%, respectively. In addition, in experiment [2] (setting [10]), the “LXR alpha IP (nM)” value is given as “NO IP”.

For the molecule `CN(C)C(=O)c1ccc(N2CCC(CC3CCN(C(=O)C4(c5ccccc5Cl)CC4)CC3)CC2)nc1Cl` [Example 7-53, 2-chloro-6-{4-[(1-{[1-(2-chlorophenyl)cyclopropyl]carbonyl}piperidin-4-yl)methyl]piperidin-1-yl}-N,N-dimethylpyridine-3-carboxamide], the Emax worked out at 118% in experiment [1] (setting [3]) and 45% in experiment [2] (setting [5]). Besides, the EC50 turned out to be 31 nM in experiment [1] (setting [4]) and 571 nM in experiment [2] (setting [6]).

For `Cc1cc(N2CCC(CC3CCN(C(=O)[C@](O)(c4cccc(C(C)C)c4)C(F)(F)F)CC3)CC2)ccc1C(=O)N(C)C` [Example 2-149, N,N,2-trimethyl-4-{4-[(1-{(2R)-3,3,3-trifluoro-2-hydroxy-2-[3-(1-methyl-ethyl)phenyl]propanoyl}piperidin-4-yl)methyl]piperidin-1-yl}benzamide], the Emax in experiment [1] (setting [3]) was 54%; in experiment [2] (setting [5]), 14%. In addition, the EC50 in experiment [1] (setting [4]) is 20 nM. Moreover, the “LXR alpha IP (nM)” value in experiment [2] (setting [10]) is “NO IP”.

Turning to `CN(C)C(=O)c1ccc(N2CCC(CC3CCN(C(=O)C(F)(F)c4cccc(Cl)c4)CC3)CC2)nc1Cl` [Example 7-81, 2-chloro-6-[4-({1-[(3-chlorophenyl) (difluoro)acetyl]piperidin-4-yl}methyl)piperidin-1-yl]-N,N-dimethylpyridine-3-carboxamide], the Emax in experiment [1] (setting [3]) worked out at 51%; in experiment [2] (setting [5]), 19%. Also, the EC50 in experiment [1] (setting [4]) was 206 nM. The “LXR alpha IP (nM)” value in experiment [2] (setting [10]) is reported as “NO IP”.

Take `CN(C)C(=O)c1ccc(N2CCC(CC3CCN(C(=O)C(O)(c4ccc(Cl)cc4)C(F)(F)F)CC3)CC2)cc1Cl` (centres unmarked) [Example 2-15, 2-chloro-4-[4-({1-[2-(4-chlorophenyl)-3,3,3-trifluoro-2-hydroxy-propanoyl]piperidin-4-yl}methyl)piperidin-1-yl]-N,N-dimethyl-benzamide]: the Emax came to 26% in experiment [1] (setting [3]) and 0% in experiment [2] (setting [5]). The EC50 in experiment [1] (setting [4]) was found to be 298 nM. Besides, the “LXR alpha IP (nM)” value in experiment [2] (setting [10]) is recorded as “NO IP”.

In the case of `CCOc1cccc([C@@](O)(C(=O)N2CCC(SC3CCN(c4ccc(C(=O)NC)c(Cl)n4)CC3)CC2)C(F)(F)F)c1` [Example 11-2, 2-chloro-6-[4-({1-[(2R)-2-(3-ethoxyphenyl)-3,3,3-trifluoro-2-hydroxypropanoyl]-piperidin-4-yl}-sulfanyl)piperidin-1-yl]-N-methyl-pyridine-3-carboxamide], the Emax in experiment [1] (setting [3]) amounted to 95%; in experiment [2] (setting [5]) it was 10%. In addition, the EC50 in experiment [1] (setting [4]) is 22 nM. The “LXR alpha IP (nM)” value in experiment [2] (setting [10]) is “NO IP”.
